The text below walks through data of patent US20260226086A1, “COMPOUNDS AND COMPOSITIONS AS STAT3 DEGRADERS AND USES THEREOF” (REGENTS OF THE UNIVERSITY OF MICHIGAN, priority 2023, published 2026).

The target of assay [1] is T1, STAT3 (Homo sapiens, UniProt P40763).
T1 construct: This cell line is a clone created by using CRISPR-Cas9 to fuse HiBiT to the 3′ end of STAT3 in HeLa cells; host or cells: STAT3-HiBiT KI HeLa cell line (CRISPR-Cas9 knock-in clone)
The assay is described as follows: HiBiT assay, STAT3 degradation in STAT3-HiBiT KI HeLa cells. The assay is classed as cell-based. The conditions noted are these: 24 h; for DC50: read-out: STAT3 Degradation (HeLa 24 h HiBit) DC50. The method, then:
STAT3 degradation may be determined by HiBiT assay. STAT3-HiBiT KI HeLa cell line, which is a clone created by using CRTISPR-Cas9 to fuse HiBiT to the 3′ end of STAT3 in HeLa cells, may be used for this assay. In a typical procedure, cells seeded at certain amounts of cells (e.g., 20000 cells) per well are incubated with serially diluted compounds for certain period of time (e.g., 24 hours) under certain conditions (e.g., at 37° C. with 5% CO2). At the end of treatment, Nano-Glo HiBiT Lytic Detection reagents is added to the wells and luminescence is acquired on TECAN SPARK plate reader. Untreated cells are used as control. Data points are fit with a four-parameter equation to generate a concentration-response curve. IC50 values are calculated using a nonlinear regression analysis of the mean±SD from triplicate.
STAT3-HiBiT KI HeLa cell line was purchased from Promega. This cell line is a clone created by using CRISPR-Cas9 to fuse HiBiT to the 3′ end of STAT3 in HeLa cells. DMEM medium and FBS were purchased from Gibco/Thermo Fisher Scientific. STAT3 degradation was determined based on quantification of luminescent signal using Nano-Glo HiBiT Lytic Detection System. In a typical procedure, cells seeded at 20000 cells per well in 96-well white plates (Corning) were incubated with serially diluted compounds for 24 hours at 37° C. with 5% CO2. At the end of treatment, Nano-Glo HiBiT Lytic Detection reagents was added to the wells and luminescence was acquired on TECAN SPARK plate reader. Untreated cells were used as control. Data points were fit with a four-parameter equation to generate a concentration-response curve. IC50 values were calculated using a nonlinear regression analysis of the mean±SD from triplicate.

For assay [2], the system named is SUP-M2 cells. The assay is described as follows: CellTiter-Glo 2.0 cell viability assay, SUP-M2. The assay is classed as cell-based. Particulars: SUP-M2, 96 h, 4 days. The method, then: For example, cell viability may be determined by CellTiter-Glo 2.0 Cell Viability Assay. In a typical procedure, cells seeded at certain amounts of cells (e.g., 1000 cells) per well are incubated with serially diluted compounds for certain period (e.g., 4 days) under certain conditions (e.g., at 37° C. with 5% CO2). At the end of treatment, CellTiter-Glo 2.0 is added to the wells and luminescence is acquired on TECAN SPARK plate reader. Untreated cells are used as control, Data points are fit with an equation (e.g., a four-parameter equation) to generate a concentration-response curve. IC50 values are calculated using a nonlinear regression analysis of the mean±SD from triplicate.
SU-DHL-1 and SUP-M2 cell viability was determined by CellTiter-Glo 2.0 Cell Viability Assay (Promega). SU-DHL-1 cell line was purchased from ATCC (Manassas, VA) and SUP-M2 (ACC-509) was purchased from DSMZ (Germany). RPMI 1640 medium and fetal bovine serum (FBS) were purchased from Gibco/Thermo Fisher Scientific. In a typical procedure, cells seeded at 1000 cells per well in 384-well white plates (Corning) were incubated with serially diluted compounds for 4 days at 37° C. with 5% C02. At the end of treatment, CellTiter-Glo 2.0 was added to the wells and luminescence was acquired on TECAN SPARK plate reader. Untreated cells were used as control. Data points were fit with a four-parameter equation to generate a concentration-response curve. IC50 values were calculated using a nonlinear regression analysis of the mean±SD from triplicate.

Bounds are passed on as bounds.

T1 sequence (P40763 whole entry): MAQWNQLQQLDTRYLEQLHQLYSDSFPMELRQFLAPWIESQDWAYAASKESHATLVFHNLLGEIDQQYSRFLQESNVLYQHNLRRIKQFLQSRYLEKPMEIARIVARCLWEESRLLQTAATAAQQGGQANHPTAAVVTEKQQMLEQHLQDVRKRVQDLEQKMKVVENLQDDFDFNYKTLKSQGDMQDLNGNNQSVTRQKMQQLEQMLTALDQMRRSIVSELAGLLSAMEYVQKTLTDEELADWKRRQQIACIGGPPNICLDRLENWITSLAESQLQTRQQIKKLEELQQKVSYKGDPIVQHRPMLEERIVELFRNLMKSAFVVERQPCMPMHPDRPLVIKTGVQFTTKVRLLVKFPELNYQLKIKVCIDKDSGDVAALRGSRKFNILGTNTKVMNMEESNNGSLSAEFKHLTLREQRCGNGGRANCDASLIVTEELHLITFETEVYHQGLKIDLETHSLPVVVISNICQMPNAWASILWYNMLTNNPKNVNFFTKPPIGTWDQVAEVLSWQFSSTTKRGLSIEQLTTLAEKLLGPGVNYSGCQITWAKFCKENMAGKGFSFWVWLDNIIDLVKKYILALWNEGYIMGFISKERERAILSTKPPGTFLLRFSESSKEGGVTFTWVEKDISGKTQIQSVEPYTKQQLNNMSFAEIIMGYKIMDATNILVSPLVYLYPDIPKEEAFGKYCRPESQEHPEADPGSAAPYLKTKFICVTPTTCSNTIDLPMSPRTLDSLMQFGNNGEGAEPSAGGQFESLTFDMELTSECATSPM

With `CCS(=O)(=O)c1ccc(CNC(=O)[C@H](CCC(N)=O)NC(=O)[C@@H]2CC[C@@H]3CCN(C(=O)CCCCc4cn([C@@H](C(=O)N5C[C@H](O)C[C@H]5C(=O)N[C@H](C)c5ccc(-c6scnc6C)cc5)C5CCN(C)CC5)nn4)C[C@H](NC(=O)c4cc5cc(C(=O)P(=O)(O)O)ccc5[nH]4)C(=O)N32)cc1` [Compound 21, (2-(((5S,8S,10aR)-8-(((S)-5-amino-1-((4-(ethylsulfonyl)benzyl)amino)-1,5-dioxopentan-2-yl)carbamoyl)-3-(5-(1-((R)-2-((2S,4R)-4-hydroxy-2-(((R)-1-(4-(4-methylthiazol-5-yl)phenyl)ethyl)carbamoyl)pyrrolidin-1-yl)-1-(1-methylpiperidin-4-yl)-2-oxoethyl)-1H-1,2,3-triazol-4-yl)pentanoyl)-6-oxodecahydropyrrolo[1,2-a][1,5]diazocin-5-yl)carbamoyl)-1H-indole-5-carbonyl)phosphonic acid], in assay [1], the Dmax (in general, the largest share of the target that was removed) at 1 µM was more than 80% and the DC50 (commonly the concentration at which degradation of the target reaches its halfway point) was less than 10 nM. Besides, the IC50 (as a rule, the point on the concentration scale where inhibition reaches its midpoint) in assay [2] is less than 10 nM.

For the compound `CCS(=O)(=O)c1ccc(CNC(=O)[C@H](CCC(N)=O)NC(=O)[C@@H]2CC[C@@H]3CCN(C(=O)CCCCc4cn([C@@H](C(=O)N5C[C@H](O)C[C@H]5C(=O)N[C@H](C)c5ccc(-c6scnc6C)cc5)C5CCN(C(C)=O)CC5)nn4)C[C@H](NC(=O)c4cc5cc(C(=O)P(=O)(O)O)ccc5[nH]4)C(=O)N32)cc1` [Compound 22, (2-(((5S,8S,10aR)-3-(5-(1-((R)-1-(1-acetylpiperidin-4-yl)-2-((2S,4R)-4-hydroxy-2-(((R)-1-(4-(4-methylthiazol-5-yl)phenyl)ethyl)carbamoyl)pyrrolidin-1-yl)-2-oxoethyl)-1H-1,2,3-triazol-4-yl)pentanoyl)-8-(((S)-5-amino-1-((4-(ethylsulfonyl)benzyl)amino)-1,5-dioxopentan-2-yl)carbamoyl)-6-oxodecahydropyrrolo[1,2-a][1,5]diazocin-5-yl)carbamoyl)-1H-indole-5-carbonyl)phosphonic acid], in assay [1], the Dmax at 1 µM is more than 80% and the DC50 was less than 10 nM. The IC50 in assay [2] was less than 10 nM.

As to `CCS(=O)(=O)c1ccc(CNC(=O)[C@H](CCC(N)=O)NC(=O)[C@@H]2CC[C@@H]3CCN(C(=O)CCCCCc4cn([C@H](C(=O)N5C[C@H](O)C[C@H]5C(=O)N[C@@H](COCCOCCOC)c5ccc(-c6scnc6C)cc5)C(C)(C)C)nn4)C[C@H](NC(=O)c4cc5cc(C(=O)P(=O)(O)O)ccc5[nH]4)C(=O)N32)cc1` [Compound 26], in assay [1], the Dmax at 1 µM is more than 80% and the DC50 is less than 10 nM.

Take `COCCOCCOC[C@H](NC(=O)[C@@H]1C[C@@H](O)CN1C(=O)[C@@H](n1cc(CCCc2cccc(OC[C@H](CCC(N)=O)NC(=O)[C@@H]3CC[C@@H]4CCN(C(C)=O)C[C@H](NC(=O)c5cc6cc(C(=O)P(=O)(O)O)ccc6[nH]5)C(=O)N43)c2Cl)nn1)C(C)(C)C)c1ccc(-c2scnc2C)cc1` [Compound 27, (2-(((5S,8S,10aR)-3-acetyl-8-(((S)-5-amino-1-(2-chloro-3-(3-(1-((S)-1-((2S,4R)-4-hydroxy-2-(((R)-2-(2-(2-methoxyethoxy)ethoxy)-1-(4-(4-methylthiazol-5-yl)phenyl)ethyl)carbamoyl)pyrrolidin-1-yl)-3,3-dimethyl-1-oxobutan-2-yl)-1H-1,2,3-triazol-4-yl)propyl)phenoxy)-5-oxopentan-2-yl)carbamoyl)-6-oxodecahydropyrrolo[1,2-a][1,5]diazocin-5-yl)carbamoyl)-1H-indole-5-carbonyl)phosphonic acid]: in assay [1], the Dmax at 1 µM is more than 80% and the DC50 was less than 10 nM.

Regarding `CCS(=O)(=O)c1ccc(CNC(=O)[C@H](CCC(N)=O)NC(=O)[C@@H]2CC[C@@H]3CCN(C(=O)CCCCCc4cn([C@@H](C(=O)N5C[C@@H](O)C[C@@H]5C(=O)N[C@@H](C)c5ccc(-c6scnc6C)cc5)C5CCCCC5)nn4)C[C@H](NC(=O)c4cc5cc(C(=O)P(=O)(O)O)ccc5[nH]4)C(=O)N32)cc1` [Compound 28, (2-(((5S,8S,10aR)-8-(((S)-5-amino-1-((4-(ethylsulfonyl)benzyl)amino)-1,5-dioxopentan-2-yl)carbamoyl)-3-(6-(1-((R)-1-cyclohexyl-2-((2R,4S)-4-hydroxy-2-(((S)-1-(4-(4-methylthiazol-5-yl)phenyl)ethyl)carbamoyl)pyrrolidin-1-yl)-2-oxoethyl)-1H-1,2,3-triazol-4-yl)hexanoyl)-6-oxodecahydro-pyrrolo[1,2-a][1,5]diazocin-5-yl)carbamoyl)-1H-indole-5-carbonyl)phosphonic acid], in assay [1], the Dmax at 1 µM is more than 80% and the DC50 was less than 10 nM.

As for `CCS(=O)(=O)c1ccc(CNC(=O)[C@H](CCC(N)=O)NC(=O)[C@@H]2CC[C@@H]3CCN(C(=O)CCCCCc4cn([C@@H](C(=O)N5C[C@@H](O)C[C@@H]5C(=O)N[C@@H](C)c5ccc(-c6scnc6C)cc5)C5CCOCC5)nn4)C[C@H](NC(=O)c4cc5cc(C(=O)P(=O)(O)O)ccc5[nH]4)C(=O)N32)cc1` [Compound 29, (2-(((5S,8S,10aR)-8-(((S)-5-amino-1-((4-(ethylsulfonyl)benzyl)amino)-1,5-dioxopentan-2-yl)carbamoyl)-3-(6-(1-((R)-2-((2R,4S)-4-hydroxy-2-(((S)-1-(4-(4-methylthiazol-5-yl)phenyl)ethyl)carbamoyl)pyrrolidin-1-yl)-2-oxo-1-(tetrahydro-2H-pyran-4-yl)ethyl)-1H-1,2,3-triazol-4-yl)hexanoyl)-6-oxodecahydropyrrolo[1,2-a][1,5]diazocin-5-yl)carbamoyl)-1H-indole-5-carbonyl)phosphonic acid], in assay [1], the Dmax at 1 µM was more than 80% and the DC50 is less than 10 nM.

Consider `CCS(=O)(=O)c1ccc(OC[C@H](CCC(N)=O)NC(=O)[C@@H]2CC[C@@H]3CCN(C(=O)CCCCc4cn([C@H](C(=O)N5C[C@H](O)C[C@H]5C(=O)N[C@@H](C)c5ccc(-c6scnc6C)cc5)C(C)(C)C)nn4)C[C@H](NC(=O)c4cc5cc(C(=O)P(=O)(O)O)ccc5[nH]4)C(=O)N32)cc1` [Compound 34, (2-(((5S,8S,10aR)-8-(((S)-5-amino-1-(4-(ethylsulfonyl)phenoxy)-5-oxopentan-2-yl)carbamoyl)-3-(5-(1-((S)-1-((2S,4R)-4-hydroxy-2-(((S)-1-(4-(4-methylthiazol-5-yl)phenyl)ethyl)carbamoyl)pyrrolidin-1-yl)-3,3-dimethyl-1-oxobutan-2-yl)-1H-1,2,3-triazol-4-yl)pentanoyl)-6-oxodecahydropyrrolo[1,2-a][1,5]diazocin-5-yl)carbamoyl)-1H-indole-5-carbonyl)phosphonic acid], for which, in assay [1], the Dmax at 1 µM lay in the range of 60 to 80% and the DC50 was in the range of 10 to 100 nM.

Regarding `CC(=O)N1CC[C@H]2CC[C@@H](C(=O)N[C@@H](CCC(N)=O)COc3cccc(CCCc4cn([C@H](C(=O)N5C[C@H](O)C[C@H]5C(=O)N[C@@H](C)c5ccc(-c6scnc6C)cc5)C(C)(C)C)nn4)c3Cl)N2C(=O)[C@@H](NC(=O)c2cc3cc(C(F)(F)P(=O)(O)O)ccc3s2)C1` [Compound 44], in assay [1], the Dmax at 1 µM was more than 80% and the DC50 was less than 10 nM.
